Residues, ends and D or L forms follow the SMILES beside them.
Columns and labels:
[1] = system: facialis arteries from non-treated SCD mice; assay: Vasodilatation of facialis arteries from untreated SCD mice, peptide added ex vivo; parameters: species or system mouse; conditions: KYC 1.5 μg/ml, 20 min
Method: For vessels treated with KYC (ex-vivo): Using untreated SCD mice, the vessels were isolated/cannulated the same as for the mice treated with KYC in vivo. After the control dose-response curve using acetylcholine (ACh, 10^−7-10^−4 M) and subsequent washing, the vessels were incubated with KYC 1.5 μg/ml for 20 minutes, pre-constricted, and exposed to acetylcholine (ACh, 10^−7-10^−4 M). Vasodilation to papaverine (2.0×10^−4 M) was determined after all treatments to ensure smooth muscle viability. Vasodilation was calculated as a percent of maximal vessel diameter change.

MPO [2] = target: T1, MPO (Homo sapiens, UniProt P05164); assay: MPO-mediated nitration of BSA (western blot for nitrotyrosine); assay type: biochemical; parameters: purchased Lee Biosolutions (St. Louis, Mo.); conditions: for MPO-mediated BSA nitration (in words): H2O2 100 μM, nitrite 100 μM
T1 sequence (P05164 49-745): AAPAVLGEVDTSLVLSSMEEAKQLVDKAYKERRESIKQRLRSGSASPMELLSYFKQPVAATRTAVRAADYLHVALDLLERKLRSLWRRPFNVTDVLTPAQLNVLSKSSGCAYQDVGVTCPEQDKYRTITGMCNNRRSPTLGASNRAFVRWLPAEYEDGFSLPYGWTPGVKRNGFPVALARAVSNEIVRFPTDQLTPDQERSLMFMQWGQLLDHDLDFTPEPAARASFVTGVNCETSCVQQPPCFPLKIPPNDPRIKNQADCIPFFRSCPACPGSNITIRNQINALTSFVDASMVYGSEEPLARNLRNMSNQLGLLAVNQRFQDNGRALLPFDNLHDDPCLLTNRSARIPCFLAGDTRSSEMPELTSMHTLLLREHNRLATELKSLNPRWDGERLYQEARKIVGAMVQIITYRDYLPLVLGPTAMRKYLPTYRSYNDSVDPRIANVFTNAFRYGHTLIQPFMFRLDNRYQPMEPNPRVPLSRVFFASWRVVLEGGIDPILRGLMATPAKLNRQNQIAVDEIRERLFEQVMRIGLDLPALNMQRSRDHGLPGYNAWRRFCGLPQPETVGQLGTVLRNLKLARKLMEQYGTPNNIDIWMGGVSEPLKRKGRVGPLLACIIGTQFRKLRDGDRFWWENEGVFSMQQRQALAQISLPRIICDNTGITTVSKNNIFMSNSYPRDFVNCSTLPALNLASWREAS
Method: MPO-mediated Nitration of Bovine Serum Albumin (BSA). BSA (0.5 mg/mL) was incubated with MPO (20 nM), H2O2 (100 μM), nitrite (100 μM) and increasing concentrations of KYC in phosphate buffer (100 mM, pH 7.4) containing DTPA (100 μM) for 30 min. Reactions were stopped by addition of catalase. Nitrotyrosine formation was assessed by western blot analysis.
MPO-mediated Nitration of Bovine Serum Albumin (BSA): BSA (0.5 mg/mL) was incubated with MPO (20 nM), H2O2 (25 μM), NaNO2 (50 μM) and increasing concentrations of KYC in phosphate buffer (100 mM, pH 7.4) containing DTPA (100 μM) for 30 min. Reactions were halted by addition of catalase (2,000 units/mL). NO2Tyr formation was assessed by western blot analysis with an anti-NO2Tyr rabbit polyclonal antibody (EMD, Gibbstown, N.J.).

SCD mice = assay: Immunofluorescence of aortas of treated SCD mice (chlorotyrosine, MPO); assay type: in vivo, mouse; conditions: KYC IP 0.3 mg/kg/d, three weeks, vs non-treated SCD mice
Method: Immunofluorescence Studies. In a separate study, SCD mice were treated with KYC (IP, 0.3 mg/kg/d). After three weeks treatment, mice were deeply anesthetized and euthanized by exsanguination. Thoracic and abdominal aortas were surgically removed and rinsed free of blood elements using ice cold PBS. Aortas were fixed, imbedded in paraffin, and sectioned.

lung cancer mice = assay: BHT-treated lung cancer mice (BALF activities, tumor number); assay type: in vivo, mouse
Method: Inhibiting MPO decreases PMN degranulation in lung cancer mice. PMNs are considered to play a causal role in initiating tumor formation. Effects of KYC on PMN recruitment and tumor formation in lung cancer mice were determined. Briefly, mice were treated with BHT (single dose: 300 mg/kg) and KYC (0.3 mg/kg/d).

MPO [3] = target: T1, MPO; assay: MPO-mediated nitration of LDL (dot blot); assay type: biochemical; parameters: purchased Lee Biosolutions (St. Louis, Mo.); conditions: MPO 50 nM, H2O2 50 μM, NaNO2 50 μM, 37° C., 4 h
Method: MPO-mediated Nitration of LDL: LDL (0.5 mg/mL) was incubated with MPO (50 nM), H2O2 (50 μM), NaNO2 (50 μM) and increasing concentrations of KYC in phosphate buffer (100 mM, pH 7.4) containing DTPA (100 μM) at 37° C. for 4 h. Reactions were stopped by addition of catalase (2,000 units/mL). Formation of NO2Tyr was assessed by dot blot analysis. Briefly, LDL solutions were mixed with 1% SDS and centrifuged (12000 g, 15 min) Aliquots of supernatants were applied to a nitrocellulose membrane with a dot blot apparatus (Biorad model: Bio-Dot). The levels of NO2Tyr were visualized using a rabbit polyclonal anti-NO2Tyr antibody (EMD, Gibbstown, N.J.) and the ECL plus kit from Thermo-Peirce (Rockford, Ill.).

[4] = BHT 300 mg/kg single dose, KYC 0.3 mg/kg/d, after 3 days

- inhibition at 12.5 µM (MPO [2]; 12.5 μM KYC, H2O2 25 μM, NaNO2 50 μM, read-out: Inhibition of NO2Tyr formation in BSA): 50%
- MPO-mediated BSA nitration (in words) (MPO [2]; 30 μM KYC): inhibits
- NO2Tyr formation in BSA (in words) (MPO [2]; 50 μM KYC, H2O2 25 μM, NaNO2 50 μM): essentially ablated
- MPO-mediated BSA nitration (in words) (MPO [2]; 250 μM KYC): essentially ablates
- NO2Tyr in LDL (in words) (MPO [3]): markedly reduces
SMILES: CC(=O)N[C@@H](CCCCN)C(=O)N[C@@H](Cc1ccc(O)cc1)C(=O)N[C@@H](CS)C(N)=O [KYC, N-acetyl Lysyltyrosylcysteine Amide] (Ac-Lys-Tyr-Cys-NH2)
- Vasodilatation in response to ACh, peptide added to vessel bath (in words) [1]: did not increase vasodilatation
- Chlorotyrosine levels in aortas (in words) (SCD mice): reduced
- MPO levels in aortas (in words) (SCD mice): reduced
- Decrease of the number of tumors vs untreated mice (lung cancer mice; 6 weeks of KYC treatment, p=0.02): ~50%
- Elastase activity in BALF (in words) (lung cancer mice; [4]): significantly decreased
- MPO activity in BALF (in words) (lung cancer mice; [4]): significantly decreased
- PMN number in BALF (in words) (lung cancer mice; [4]): did not reduce

— patent publication US8937039B2, “Peptide-based peroxidase inhibitors and methods of using same” (The Medical College of Wisconsin, Inc., priority 2009, dated 2015)
